Test results from paper PMC11995724, “Antibiotic target discovery by integrated phenotypic and activity-based profiling of electrophilic fragments” (Cell chemical biology, 2025).

Assay: in vitro
Conditions: human, hek293t cells

Work on `C=CC(=O)N(Cc1ccc(Cl)cc1Cl)CC1CCC(O)C1` (stereo not shown) [1-B04, N-[(2,4-dichlorophenyl)methyl]-N-[(3-hydroxycyclopentyl)methyl]prop-2-enamide] yielded a viability at 48 h, 25 µM of 26.4%.

For `C=CC(=O)N(C)Cc1cc(-c2ccccc2)[nH]n1` [1-B05, N-methyl-N-[(5-phenyl-1H-pyrazol-3-yl)methyl]prop-2-enamide], the viability at 48 h, 25 µM was 92.7%.

Work on `C=CC(=O)NC1CC2CCC(C1)S2` (stereo not shown) [1-B06, N-{8-thiabicyclo[3.2.1]octan-3-yl}prop-2-enamide] yielded a viability at 48 h, 25 µM of 84.7%.

With `C=CC(=O)NC(Cc1ccccc1)c1ncco1` (stereo not shown) [1-B07, N-[1-(1,3-oxazol-2-yl)-2-phenylethyl]prop-2-enamide] the viability at 48 h, 25 µM was 118%.

Compound `C=CC(=O)NC(C)c1cc2cnccc2o1` (stereo not shown) [1-B08, N-(1-{furo[3,2-c]pyridin-2-yl}ethyl)prop-2-enamide] has a viability at 48 h, 25 µM of 80.6%.

With `C=CC(=O)N1CCOC(Cn2nc(C)nc2C)C1` (stereo not shown) [1-B09, 1-{2-[(3,5-dimethyl-1H-1,2,4-triazol-1-yl)methyl]morpholin-4-yl}prop-2-en-1-one] the viability at 48 h, 25 µM was 161%.

With `C=CC(=O)N1CCC[C@H]1C(=O)Nc1cccc(C)n1` [1-B10, (2S)-N-(6-methylpyridin-2-yl)-1-(prop-2-enoyl)pyrrolidine-2-carboxamide] the viability at 48 h, 25 µM was 77.1%.

`C=CC(=O)N(Cc1c(C)cccc1C)C1CCc2nc(C)nn2C1` (stereo not shown) [1-B11, N-[(2,6-dimethylphenyl)methyl]-N-{2-methyl-5H,6H,7H,8H-[1,2,4]triazolo[1,5-a]pyridin-6-yl}prop-2-enamide] showed a viability at 48 h, 25 µM of 114%.

For `C=CC(=O)N(C)C1CCN(c2cnccn2)CC1` [1-B12, N-methyl-N-[1-(pyrazin-2-yl)piperidin-4-yl]prop-2-enamide], the viability at 48 h, 25 µM was 70.1%.

`C=CC(=O)NC(c1ccccc1)c1nc(C)no1` (stereo not shown) [1-B13, N-[(3-methyl-1,2,4-oxadiazol-5-yl)(phenyl)methyl]prop-2-enamide] showed a viability at 48 h, 25 µM of 109%.

`C=CC(=O)Nc1c(OC)nc(Cl)nc1OC` [1-B14, N-(2-chloro-4,6-dimethoxypyrimidin-5-yl)prop-2-enamide] showed a viability at 48 h, 25 µM of 60.2%.

With `C=CC(=O)N(Cc1sc(C)nc1C)[C@@H](C)[C@H]1COC(C)(C)O1` [1-B15, N-[(1S)-1-[(4S)-2,2-dimethyl-1,3-dioxolan-4-yl]ethyl]-N-[(2,4-dimethyl-1,3-thiazol-5-yl)methyl]prop-2-enamide] the viability at 48 h, 25 µM was 90%.

`C=CC(=O)Nc1nc(Cc2ccccc2)c(C)s1` [1-B16, N-(4-benzyl-5-methyl-1,3-thiazol-2-yl)prop-2-enamide] gave a viability at 48 h, 25 µM of 73.2%.

For `C=CC(=O)N(Cc1ccc(=O)n(C)c1)C1CCCc2ccccc21` (stereo not shown) [1-B17, N-[(1-methyl-6-oxo-1,6-dihydropyridin-3-yl)methyl]-N-(1,2,3,4-tetrahydronaphthalen-1-yl)prop-2-enamide], the viability at 48 h, 25 µM was 112%.

Work on `C=CC(=O)N1CCN(Cc2cc(C)no2)CC1` [1-B18, 1-{4-[(3-methyl-1,2-oxazol-5-yl)methyl]piperazin-1-yl}prop-2-en-1-one] yielded a viability at 48 h, 25 µM of 70.8%.

`C=CC(=O)N1CCC(NC(C)=O)C1` (stereo not shown) [1-B19, N-[1-(prop-2-enoyl)pyrrolidin-3-yl]acetamide] showed a viability at 48 h, 25 µM of 114%.

In the case of `C=CC(=O)N1CCNC(=O)C1Cc1nc2ccccc2o1` (stereo not shown) [1-B20, 3-[(1,3-benzoxazol-2-yl)methyl]-4-(prop-2-enoyl)piperazin-2-one], the viability at 48 h, 25 µM is reported as 82.9%.

In the case of `C=CC(=O)NC1c2cccc(F)c2CCC1C` (stereo not shown) [1-B21, N-(5-fluoro-2-methyl-1,2,3,4-tetrahydronaphthalen-1-yl)prop-2-enamide], the viability at 48 h, 25 µM is reported as 92.8%.

`C=CC(=O)NC(Cc1nc(C)no1)c1ccccc1` (stereo not shown) [1-B22, N-[2-(3-methyl-1,2,4-oxadiazol-5-yl)-1-phenylethyl]prop-2-enamide] gave a viability at 48 h, 25 µM of 68.5%.

`C=CC(=O)NCC1SCCS1` [1-C03, N-[(1,3-dithiolan-2-yl)methyl]prop-2-enamide] gave a viability at 48 h, 25 µM of 87.6%.

In the case of `C=CC(=O)Nc1ccc(OC)cc1S(C)(=O)=O` [1-C04, N-(2-methanesulfonyl-4-methoxyphenyl)prop-2-enamide], the viability at 48 h, 25 µM is reported as 65.8%.

Work on `C=CC(=O)NC(CO)c1nc(C)no1` (stereo not shown) [1-C05, N-[2-hydroxy-1-(3-methyl-1,2,4-oxadiazol-5-yl)ethyl]prop-2-enamide] yielded a viability at 48 h, 25 µM of 71.4%.

`C=CC(=O)N1CCC(C(=O)N2CCc3ccc([N+](=O)[O-])cc32)CC1` [1-C06, 1-[4-(6-nitro-2,3-dihydro-1H-indole-1-carbonyl)piperidin-1-yl]prop-2-en-1-one] showed a viability at 48 h, 25 µM of 49.9%.

For `C=CC(=O)NCc1coc(-c2cccs2)n1` [1-C07, N-{[2-(thiophen-2-yl)-1,3-oxazol-4-yl]methyl}prop-2-enamide], the viability at 48 h, 25 µM was 70.1%.

`C=CC(=O)NCc1c(C)nc2ccccn12` [1-C08, N-({2-methylimidazo[1,2-a]pyridin-3-yl}methyl)prop-2-enamide] gave a viability at 48 h, 25 µM of 82.8%.

`C=CC(=O)NCc1ccnc(N2CCOCC2)c1` [1-C09, N-{[2-(morpholin-4-yl)pyridin-4-yl]methyl}prop-2-enamide] gave a viability at 48 h, 25 µM of 70.7%.

For `C=CC(=O)NCc1ccc(F)c(F)c1` [1-C10, N-[(3,4-difluorophenyl)methyl]prop-2-enamide], the viability at 48 h, 25 µM was 49.1%.

Compound `C=CC(=O)Nc1c2c(cc3c1CCC3)CCC2` [1-C11, N-(1,2,3,5,6,7-hexahydro-s-indacen-4-yl)prop-2-enamide] has a viability at 48 h, 25 µM of 45.8%.

With `C=CC(=O)N1CCCCC1` [1-C12, 1-(piperidin-1-yl)prop-2-en-1-one] the viability at 48 h, 25 µM was 98.4%.

In the case of `C=CC(=O)NCc1cnc(-c2ccc(C(F)(F)F)cc2)s1` [1-C13, N-({2-[4-(trifluoromethyl)phenyl]-1,3-thiazol-5-yl}methyl)prop-2-enamide], the viability at 48 h, 25 µM is reported as 75.8%.

`C=CC(=O)NC1CCN(c2ccc(Cl)c(Cl)c2)C1` (stereo not shown) [1-C14, N-[1-(3,4-dichlorophenyl)pyrrolidin-3-yl]prop-2-enamide] gave a viability at 48 h, 25 µM of 52.9%.

With `C=CC(=O)N(C)Cc1c(C)nn(C)c1Cl` [1-C15, N-[(5-chloro-1,3-dimethyl-1H-pyrazol-4-yl)methyl]-N-methylprop-2-enamide] the viability at 48 h, 25 µM was 86.1%.

Work on `C=CC(=O)Nc1ccc(F)cc1C(C)(F)F` [1-C16, N-[2-(1,1-difluoroethyl)-4-fluorophenyl]prop-2-enamide] yielded a viability at 48 h, 25 µM of 137%.

In the case of `C=CC(=O)Nc1cc(NC(=O)C2CC3CCC2CC3)ccc1F` (stereo not shown) [1-C17, N-[4-fluoro-3-(prop-2-enamido)phenyl]bicyclo[2.2.2]octane-2-carboxamide], the viability at 48 h, 25 µM is reported as 2.94%.

Compound `C=CC(=O)N1CCC(n2cc(C(N)=O)nn2)C1` (stereo not shown) [1-C18, 1-[1-(prop-2-enoyl)pyrrolidin-3-yl]-1H-1,2,3-triazole-4-carboxamide] has a viability at 48 h, 25 µM of 79.6%.

`C=CC(=O)Nc1ccc2c(c1)N(CC#N)CC2` [1-C19, N-[1-(cyanomethyl)-2,3-dihydro-1H-indol-6-yl]prop-2-enamide] showed a viability at 48 h, 25 µM of 94.7%.

With `C=CC(=O)Nc1ccc(OCCC)c(C)c1` [1-C20, N-(3-methyl-4-propoxyphenyl)prop-2-enamide] the viability at 48 h, 25 µM was 80.1%.

Work on `C=CC(=O)Nc1ccc(C(C)Sc2ccccc2)cc1` (stereo not shown) [1-C21, N-{4-[1-(phenylsulfanyl)ethyl]phenyl}prop-2-enamide] yielded a viability at 48 h, 25 µM of 69.7%.

`C=CC(=O)Nc1ccc2c(c1)SCC(=O)N2` [1-C22, N-(3-oxo-3,4-dihydro-2H-1,4-benzothiazin-7-yl)prop-2-enamide] gave a viability at 48 h, 25 µM of 109%.

For `C=CC(=O)N(C[C@H]1CCCO1)C1CCC(CC)CC1` (stereo partly drawn) [1-D03, N-(4-ethylcyclohexyl)-N-{[(2R)-oxolan-2-yl]methyl}prop-2-enamide], the viability at 48 h, 25 µM was 94.6%.

With `C=CC(=O)N(Cc1cccc2ccoc12)C1CCSCC1` [1-D04, N-[(1-benzofuran-7-yl)methyl]-N-(thian-4-yl)prop-2-enamide] the viability at 48 h, 25 µM was 70.4%.

In the case of `C=CC(=O)NC1CCOc2c(F)cccc21` (stereo not shown) [1-D05, N-(8-fluoro-3,4-dihydro-2H-1-benzopyran-4-yl)prop-2-enamide], the viability at 48 h, 25 µM is reported as 99.1%.

`C=CC(=O)NC1COCC1C` (stereo not shown) [1-D06, N-(4-methyloxolan-3-yl)prop-2-enamide] showed a viability at 48 h, 25 µM of 77.2%.

Work on `C=CC(=O)N1CCCC(c2nn(C)cc2C(N)=O)C1` (stereo not shown) [1-D07, 1-methyl-3-[1-(prop-2-enoyl)piperidin-3-yl]-1H-pyrazole-4-carboxamide] yielded a viability at 48 h, 25 µM of 107%.

`C=CC(=O)Nc1nc(-c2cccs2)cs1` [1-D08, N-[4-(thiophen-2-yl)-1,3-thiazol-2-yl]prop-2-enamide] showed a viability at 48 h, 25 µM of 1.21%.

Work on `C=CC(=O)N1CCCC(n2ccnn2)C1` (stereo not shown) [1-D09, 1-[3-(1H-1,2,3-triazol-1-yl)piperidin-1-yl]prop-2-en-1-one] yielded a viability at 48 h, 25 µM of 93.6%.

`C=CC(=O)NC1CC(C2CCCCC2)C1` (stereo not shown) [1-D10, N-(3-cyclohexylcyclobutyl)prop-2-enamide] showed a viability at 48 h, 25 µM of 75.7%.

`C=CC(=O)N(Cc1ccc(F)cn1)c1cnn(C2CCCC2)c1C` [1-D11, N-(1-cyclopentyl-5-methyl-1H-pyrazol-4-yl)-N-[(5-fluoropyridin-2-yl)methyl]prop-2-enamide] showed a viability at 48 h, 25 µM of 97.3%.

For `C=CC(=O)Nc1ccc(N2CCN(CC)CC2)cc1` [1-D12, N-[4-(4-ethylpiperazin-1-yl)phenyl]prop-2-enamide], the viability at 48 h, 25 µM was 77.2%.

`C=CC(=O)NCCc1csc(C)n1` [1-D13, N-[2-(2-methyl-1,3-thiazol-4-yl)ethyl]prop-2-enamide] gave a viability at 48 h, 25 µM of 106%.

`C=CC(=O)N1CCC(F)CC1` [1-D14, 1-(4-fluoropiperidin-1-yl)prop-2-en-1-one] gave a viability at 48 h, 25 µM of 69.9%.

In the case of `C=CC(=O)N(Cc1cnc(C2CC2)o1)C1CCCCC1C` (stereo not shown) [1-D15, N-[(2-cyclopropyl-1,3-oxazol-5-yl)methyl]-N-(2-methylcyclohexyl)prop-2-enamide], the viability at 48 h, 25 µM is reported as 118%.

Work on `C=CC(=O)NCC(=O)c1scc(C)c1Cl` [1-D16, N-[2-(3-chloro-4-methylthiophen-2-yl)-2-oxoethyl]prop-2-enamide] yielded a viability at 48 h, 25 µM of 65.2%.

Work on `C=CC(=O)NCC1CCCCN1S(C)(=O)=O` (stereo not shown) [1-D17, N-[(1-methanesulfonylpiperidin-2-yl)methyl]prop-2-enamide] yielded a viability at 48 h, 25 µM of 161%.

Compound `C=CC(=O)N1CCn2c(nnc2C(F)(F)F)C1` [1-D18, 1-[3-(trifluoromethyl)-5H,6H,7H,8H-[1,2,4]triazolo[4,3-a]pyrazin-7-yl]prop-2-en-1-one] has a viability at 48 h, 25 µM of 66.6%.
